Measurements from patent US20220081415A1, “Amino Acid Derivatives for the Treatment of Inflammatory Diseases” (The Roskamp Institute, priority 2019, published 2022).

What follows are molecules tested on NF-kB activation induced by TNFα (assay: TNFα Luciferase assay: inhibition of NF-kB activation induced by TNFα in HEK293/NF-kB luciferase cells). Settings: Homo sapiens, 4 h, 25 ng/ml of TNF-α for four hours, quadruplicate, read-out: IC50, concentration at which NF-kB activation was reduced by 50%.
Assay type: cell-based
Description: Determination of Inhibition of NF-kB Activation Induced by TNFα . . . In Vitro Assay
The ability of a compound disclosed herein to inhibit NFkB activation induced by TNFα was determined using the TNFα Luciferase assay. The HEK293/NF-kB luciferase cell line was obtained by cotransfection of pNFkB-luc vector with pHyg (Panomics, CA, USA) followed by hygromycin selection. HEK293/NFkB Luciferase cells were grown in DMEM medium supplemented with 10% fetal bovine serum, 100 U/ml of penicillin, 100 ng/ml of streptomycin/Fungizone, and 100 μg/ml of hygromycin B as the selecting agent. HEK293 NFkB Luciferase cells were grown in T75 flasks (Nunc™ Cell Culture Treated EasYFlasks™) in a cell culture incubator at 37° C. and 5% CO2.
Confluent T75 cell culture flasks (approximately 8-10 million of cells per flask) were washed with 10 ml of sterile PBS (without calcium and magnesium) under a biosafety cabinet. After aspiration of the PBS with a sterile glass pipette, the layer of cells (for each T75 flask) was covered with 1 ml of TrypLE™ Express without phenol red (Gibco) at room temperature. After one minute of incubation, HEK293 were mechanically resuspended in the TrypLE by tapping the side of the flask. The cells were then resuspended with 10 ml of pre-warmed complete culture medium and transferred to a conical tube. Cells were centrifuged for 5 minutes at 4000 rpm (1000 g) at room temperature. The cellular pellet was resuspended with 24 ml of pre-warmed cell culture media and […] of cell suspension (approximately 80,000 cells per well) was plated per well in 96-well cell culture plates (Costar #3599, Corning, N.Y., USA) using a multichannel pipette and reversed pipetting to prevent air bubble formation. After plating, the cells were maintained overnight in the cell culture incubator before being treated. For each 96 well cell culture plate, 8 wells were used as “control wells” (only culture medium added) and to 8 wells only TNFα was added. The NF-kB Luciferase reporter cell line was challenged with 25 ng/ml of TNF-α for four hours in the presence and absence (control conditions) of a dose range of the different compounds to be tested. For each compound, a dose range of concentrations was tested in quadruplicate and used to determine an IC50.
Luciferase activity was monitored using the Luc-Screen® Extended-Glow Luciferase Reporter Gene Assay System by chemoluminescence according to the instruction of the manufacturer (Invitrogen) and a BioTek Synergy HT plate reader (BioTek Instruments, VT, USA).

Structure (SMILES)	IC50 [nM]
COc1cc(Cl)ccc1C(=O)N[C@H](Cc1ccccc1)C(=O)N1CC=CCC1c1cccnc1 (stereo partly drawn) [Compound 30, 4-chloro-2-methoxy-N-((2R)-1-oxo-3-phenyl-1-(6-(pyridin-3-yl)-5,6-dihydropyridin-1(2H)-yl)propan-2-yl)benzamide]	4300
CC(C)[C@@H](C(=O)N1CC=CC[C@H]1c1cccnc1)N1C(=O)c2ccccc2C1=O (single isomer, unassigned) [Compound 3]	750000
O=C(NC(Cc1ccccc1)C(=O)N1CC=CCC1c1cccnc1)c1cccc([N+](=O)[O-])c1 (centres unmarked) [Compound 15, 3-nitro-N-(1-oxo-3-phenyl-1-(6-(pyridin-3-yl)-5,6-dihydropyridin-1(2H)-yl)propan-2-yl)benzamide]	4300
CCOc1cc(C(=O)N[C@H](Cc2ccccc2)C(=O)N2CC=CCC2c2cccnc2)ccc1OC (stereo partly drawn) [Compound 26, 3-ethoxy-4-methoxy-N-((2R)-1-oxo-3-phenyl-1-(6-(pyridin-3-yl)-5,6-dihydropyridin-1(2H)-yl)propan-2-yl)benzamide]	2800

Stronger by IC50, values ahead:

IC50 [nM]	Structure (SMILES)
1800	CCOc1cccc(C(=O)N[C@@H](Cc2ccccc2)C(=O)N2CC=CCC2c2cccnc2)c1 (stereo partly drawn) [Compound 33, 3-ethoxy-N-((2S)-1-oxo-3-phenyl-1-(6-(pyridin-3-yl)-5,6-dihydropyridin-1(2H)-yl)propan-2-yl)benzamide]
121	CC[C@H](C)C(=O)Nc1cccc(C(=O)N[C@@H](Cc2ccccc2)C(=O)N2CC=CCC2c2cccnc2)c1 (stereo partly drawn) [Compound 57, 3-((S)-2-methylbutanamido)-N-((2S)-1-oxo-3-phenyl-1-(6-(pyridin-3-yl)-5,6-dihydropyridin-1(2H)-yl)propan-2-yl)benzamide]
185	CC[C@@H](C)C(=O)Nc1cccc(C(=O)N[C@@H](Cc2ccccc2)C(=O)N2CC=CCC2c2cccnc2)c1 (stereo partly drawn) [Compound 58, 3-((R)-2-methylbutanamido)-N-((2S)-1-oxo-3-phenyl-1-(6-(pyridin-3-yl)-5,6-dihydropyridin-1(2H)-yl)propan-2-yl)benzamide]
80.2	O=C(N[C@@H](Cc1ccccc1)C(=O)N1CC=CCC1c1cccnc1)c1cccc(NC(=O)C2CC2)c1 (stereo partly drawn) [Compound 44, 3-(cyclopropanecarboxamido)-N-((2S)-1-oxo-3-phenyl-1-(6-(pyridin-3-yl)-5,6-dihydropyridin-1(2H)-yl)propan-2-yl)benzamide]
